# Laboratory results published in article PMC4844587, “PET imaging of cyclooxygenase-2 (COX-2) in a pre-clinical colorectal cancer model” (EJNMMI Research, 2016).
# How the values were obtained:
# [1] = tested on: HCA-7 tumors; test: Biodistribution in HCA-7 tumor-bearing mice; conditions: 60 min p.i.; for Blocking of [^18F]Pyricoxib tumor uptake (biodistribution studies): celecoxib 100 mg/kg (2 mg per mouse) i.p., HCA-7 tumor; for Biodistribution: Tumor/blood / Biodistribution: Tumor/muscle: ratio, n = 4
# Experimental: Animals were sacrificed at 60 min p.i. The organs and tissues of interest were rapidly excised, weighed, and the radioactivity was determined using the automatic gamma counter (see above). Radioactivity in the selected tissues and organs was calculated as percent injected dose per gram tissue (%ID/g). Data were analyzed as means ± standard deviation (mean ± SD) for n = 4 animals.
# [2] = tested on: carbonic anhydrase (CA) enzyme family; conditions: cited from earlier work
# [3] = Lipophilicity; type: physicochemical
# [4] = tested on: HCA-7 tumors; test: Dynamic PET imaging of HCA-7 tumor-bearing mice
# Experimental: Female NIH-III nude mice were housed under standard conditions with free access to standard food and tap water. HCA-7 and HCT-116 cells (5 × 10^6 cells in 100 μL of PBS) were injected into the upper left flank of female NIH-III nude mice (20–24 g). After 14 to 21 days post-inoculation, HCA-7 and HCT-116 tumors reached sizes of approximately 0.6–0.9 cm^3 (0.78 ± 0.15 g, as determined during biodistribution experiments) which were suitable for all in vivo experiments.
# General anesthesia of HCA-7 tumor-bearing mice was induced with inhalation of isoflurane in 40 % oxygen/60 % nitrogen (gas flow = 1 mL/min), and mice were subsequently fixed in prone position. The body temperature was kept constant at 37 °C for the entire experiment. […] PET data was collected dynamically over 60 min for up to 4 h using an Inveon® PET/CT scanner (Siemens Preclinical Solutions, Knoxville, TN, USA). For the initial 4-h dynamic PET experiments, 3.5 % HSA was added to the final injection solution, while all other experiments were done without addition of carrier protein HSA. Mean standardized uptake values [SUVmean = (activity/mL tissue)/(injected activity/body weight), mL/g] were calculated for each region of interest (ROI) with a threshold defined at 50 % of radioactivity uptake. The time-activity curves (TACs) were generated from dynamic PET scans. All semi-quantified PET data are presented as means ± SEM.
# A transmission scan for attenuation correction was not acquired. The radioactivity of the injection solution in a 0.5 mL syringe was determined with a dose calibrator (Atomlab^TM 300, Biodex Medical Systems, New York, U.S.A.). After the PET emission scan was started the radioactivity was injected with a delay of approximately 15 s. Data acquisition continued for 60 min in 3D list mode. The dynamic list mode data were sorted into sinograms with up to 54 time frames (10x2, 8x5, 6x10, 6x20, 8x60, 10x120, 6x300 s). The frames were reconstructed using maximum a posteriori (MAP) reconstruction modes. The pixel size was 0.085x0.085x0.12 cm, and the resolution in the center field of view was 1.8 mm. Correction for partial volume effects was not performed. The image files were further processed using the ROVER v2.0.51 software (ABX GmbH, Radeberg, Germany). Masks defining 3D regions of interest (ROI) were set and the ROIs were defined by thresholding.
# ROIs covered all visible tumor mass of the subcutaneous tumors, and the thresholds were defined by 50% of the maximum radioactivity uptake level for HCA-7 tumor in each animal.
# [5] = tested on: HCT-116 tumors; test: PET imaging of HCT-116 tumor-bearing mice; type: in vivo, NIH-III nude mice; conditions: 2 h p.i., n = 3
# Experimental: Positron emission tomography (PET) and biodistribution experiments were carried out in HCA-7 and HCT-116 tumor-bearing NIH-III nude mice (Charles River Laboratories, Quebec, Canada). Female NIH-III nude mice were housed under standard conditions with free access to standard food and tap water. HCA-7 and HCT-116 cells (5 × 10^6 cells in 100 μL of PBS) were injected into the upper left flank of female NIH-III nude mice (20–24 g). After 14 to 21 days post-inoculation, HCA-7 and HCT-116 tumors reached sizes of approximately 0.6–0.9 cm^3 (0.78 ± 0.15 g, as determined during biodistribution experiments) which were suitable for all in vivo experiments.
# General anesthesia of HCA-7 tumor-bearing mice was induced with inhalation of isoflurane in 40 % oxygen/60 % nitrogen (gas flow = 1 mL/min), and mice were subsequently fixed in prone position. The body temperature was kept constant at 37 °C for the entire experiment. […] PET data was collected dynamically over 60 min for up to 4 h using an Inveon® PET/CT scanner (Siemens Preclinical Solutions, Knoxville, TN, USA). […] Mean standardized uptake values [SUVmean = (activity/mL tissue)/(injected activity/body weight), mL/g] were calculated for each region of interest (ROI) with a threshold defined at 50 % of radioactivity uptake. […] All semi-quantified PET data are presented as means ± SEM.
# [6] = Radiometabolite analysis and blood compartment distribution; type: in vivo, NIH-III nude mice
# Experimental: Blood samples from the tail vein (20–40 μL) were collected at 5, 30, 60, and 120 min p.i. Plasma was separated by centrifugation (5 min, 13,000×g) followed by plasma protein precipitation using ice-cold methanol (two parts per one part plasma) and centrifugation (5 min, 13,000×g). Supernatants were analyzed by radio thin-layer chromatography (radio-TLC). TLCs were developed in 1 % MeOH/CH2Cl2 and analyzed using a BAS-5000 reader.
# [7] = tested on: HCA-7 cells
# Experimental: Blocking experiments were performed at 60 min. Radiotracer uptake was stopped by the addition of 1 mL of ice-cold PBS. Then, cells were washed two times with PBS and lysed in 0.4 mL of radioimmunoprecipitation assay buffer (RIPA buffer). Radioactivity of cell lysates was determined with a WIZARD2 Automatic gamma counter (Perkin Elmer; Waltham, MA, USA). Total protein concentration in the samples was determined by the bicinchoninic acid method (BCA; Pierce, Thermo Scientific 23227) using bovine serum albumin (800, 600, 400, 300, 200, 100, 50 μg/mL, blank) as protein standard. Cell uptake data are expressed as percent of measured radioactivity per 1 mg protein (%radioactivity/mg protein).
# [8] = tested on: COX-2; conditions: read-out: COX-2 inhibition IC50; cited from earlier work
# [9] = + 2 mg celecoxib i.p. 60 min prior
compound,measurement,setting,value
"Cc1ccc(-c2cc(C(F)(F)F)nn2-c2ccc(S(N)(=O)=O)cc2)cc1 [celecoxib, reference compound]",Blocking of [^18F]Pyricoxib tumor uptake (biodistribution studies),[1],50%
same,Blocking of [^18F]Pyricoxib tumor uptake (biodistribution studies),[1]; listed as Celecoxib,51%
same,Affinity for carbonic anhydrase,[2],low nanomolar affinity
"CS(=O)(=O)c1ccc(-c2cc(C(F)(F)F)nc(NCc3ccc([18F])cc3)n2)cc1 [[^18F]Pyricoxib, N-(4-[^18F]fluorobenzyl)-4-[4-(methylsulfonyl)phenyl]-6-(trifluoro-methyl)pyrimidin-2-amine]",logP,[3],3.37
same,Mean SUV HCA-7 tumor,"[4]; 60 min p.i., control animals, no HSA, n = 6",0.75 ± 0.12
same,SUV HCA-7 tumor,"[4]; 60 min p.i., pre-treated with celecoxib 2 mg i.p. 60 min prior, n = 6",0.57 ± 0.20
same,SUV2h tumor,"[4]; HCA-7 tumor, 2 h p.i., n = 3",1.09 ± 0.13
same,SUV4h tumor,"[4]; HCA-7 tumor, 4 h p.i., […] HSA added, n = 7",1.19 ± 0.13
same,SUV muscle,"[4]; muscle as reference tissue, 60 min p.i., no HSA, n = 6",0.50 ± 0.11
same,SUV60min muscle,"[4]; muscle, 60 min p.i., […] HSA added",0.61 ± 0.14
same,SUV4h muscle,"[4]; muscle, 4 h p.i., […] HSA added, n = 7",0.53 ± 0.11
same,SUV2h tumor,[5],0.93 ± 0.06
same,Biodistribution: Blood,"[1]; control, n = 4, mean ± SD",0.65 ± 0.12 %ID/g
same,Biodistribution: Bone,"[1]; control, n = 4, mean ± SD",0.67 ± 0.19 %ID/g
same,Biodistribution: Brain,"[1]; control, n = 4, mean ± SD",1.74 ± 0.51 %ID/g
same,Biodistribution: Duodenum,"[1]; control, n = 4, mean ± SD",4.59 ± 0.73 %ID/g
same,Biodistribution: Fat,"[1]; control, n = 4, mean ± SD",12.67 ± 5.45 %ID/g
same,Biodistribution: HCA-7 tumor,"[1]; control, n = 4, mean ± SD",2.12 ± 0.53 %ID/g
same,Biodistribution: Heart,"[1]; control, n = 4, mean ± SD",2.52 ± 0.54 %ID/g
same,Biodistribution: Intestine (large),"[1]; control, n = 4, mean ± SD",4.21 ± 1.74 %ID/g
same,Biodistribution: Intestine (small),"[1]; control, n = 4, mean ± SD",8.08 ± 2.33 %ID/g
same,Biodistribution: Kidneys,"[1]; control, n = 4, mean ± SD",4.38 ± 1.01 %ID/g
same,Biodistribution: Liver,"[1]; control, n = 4, mean ± SD",17.13 ± 1.22 %ID/g
same,Biodistribution: Lung,"[1]; control, n = 4, mean ± SD",3.75 ± 0.66 %ID/g
same,Biodistribution: Muscle,"[1]; control, n = 4, mean ± SD",1.42 ± 0.54 %ID/g
same,Biodistribution: Ovaries,"[1]; control, n = 4, mean ± SD",8.22 ± 1.27 %ID/g
same,Biodistribution: Pancreas,"[1]; control, n = 4, mean ± SD",3.92 ± 1.39 %ID/g
same,Biodistribution: Spleen,"[1]; control, n = 4, mean ± SD",1.24 ± 0.33 %ID/g
same,Biodistribution: Stomach,"[1]; control, n = 4, mean ± SD",1.08 ± 0.29 %ID/g
same,Biodistribution: Tumor/blood,[1]; [9],1.09 ± 0.41
same,Biodistribution: Tumor/muscle,[1]; [9],0.70 ± 0.19
same,Biodistribution: Tumor/blood,[1]; control,3.39 ± 0.55
same,Biodistribution: Tumor/muscle,[1]; control,1.81 ± 1.04
same,Blood compartment distribution: blood cells,[6]; 5 min,68%
same,Blood compartment distribution: plasma proteins,[6]; 5 min,2%
same,Blood compartment distribution: plasma supernatant,[6]; 5 min,30%
same,Detectable radioactivity in plasma fraction,[6]; 5 min p.i.,30%
same,Blood compartment distribution: blood cells,[6]; 30 min,54%
same,Blood compartment distribution: plasma proteins,[6]; 30 min,4%
same,Blood compartment distribution: plasma supernatant,[6]; 30 min,42%
same,Blood compartment distribution: blood cells,[6]; 60 min,43%
same,Blood compartment distribution: plasma proteins,[6]; 60 min,7%
same,Blood compartment distribution: plasma supernatant,[6]; 60 min,50%
same,Detectable radioactivity in plasma fraction,[6]; 2 h p.i.,50%
same,Percentage of intact [^18F]Pyricoxib,"[6]; blood, 5 min p.i., mice",98%
"CS(=O)(=O)c1ccc(C2=C(c3ccccc3)C(=O)OC2)cc1 [rofecoxib, 4-(4′-methylsulfonylphenyl)-3-phenyl-2-(5H)-furanone]",Blocking of [^18F]Pyricoxib uptake,[7],blocked uptake of [^18F]Pyricoxib in HCA-7 cells in a concentration-dependent manner
same,IC50,[8],18 to 26 nM
